From patent publication US20180147140A1, “Treatment and Prevention of ENT Infections” (priority 2016, published 2018)

Test system: chronic sinusitis
Test: Patient Case 1: self-reported Health Related Quality of Life Scale and symptoms
Assay type: in vivo, human
Settings: treatments before the invention regime
From the text: Person in good health, whose daily med profile includes • Taking one statin generic drug daily • Taking one over the counter multiple vitamin daily • On average two medical exams each year • No diagnosed medical conditions or concerns
Symptoms—blocked nasal passages especially on the right side of the face, continuous hardened yellow translucent pus discharge from right nostril, minor periodic bleeding, nasal sound quality of voice, a propensity for cold virus to linger and a whistle sound while breathing through the nostrils.
The Kaiser treatment program consisted of a saline rinse bulb and recommendation of daily saline sinus rinsing along with a nasal steroid spray available over the counter. […] The patient continued occasional use of the regimen over the following 15 years with no noticeable improvement.
Treatment began on Mar. 9, 2016 with a new and unique product. The formulation used is Composition 1 in the Formulation Example.
Initial treatment was for 14 days, one dose daily in each nostril, approximately ¼ ounce (7.3 milliliters) administered with a nose dropper while the patient was lying down with chin inclined upward—sometimes with head over the edge of bed or pillow to increase the incline of the forehead to be lower than the chin. The patient remained unmoving for five minutes with no blowing of the nose to allow gravity saturation to reach the deep passages. […]

Compound: CC1(C)S[C@@H]2[C@H](NC(=O)[C@H](N)c3ccc(O)cc3)C(=O)N2[C@H]1C(=O)O [amoxicillin]
- relief of sinusitis symptoms under earlier treatments: no relief from the sinusitis
